Test results: ChEMBL document CHEMBL1933028, “Discovery of cyclic amine-substituted benzoic acids as PPARα agonists” (Bioorg Med Chem Lett, 2012)

What was measured:
[1] = biological target: T1, Peroxisome proliferator-activated receptor delta (Homo sapiens, UniProt Q03181); assay: Transactivation of human PPARdelta expressed in CHO-K1 cells; type: cell-based
T1 sequence (Q03181 whole entry): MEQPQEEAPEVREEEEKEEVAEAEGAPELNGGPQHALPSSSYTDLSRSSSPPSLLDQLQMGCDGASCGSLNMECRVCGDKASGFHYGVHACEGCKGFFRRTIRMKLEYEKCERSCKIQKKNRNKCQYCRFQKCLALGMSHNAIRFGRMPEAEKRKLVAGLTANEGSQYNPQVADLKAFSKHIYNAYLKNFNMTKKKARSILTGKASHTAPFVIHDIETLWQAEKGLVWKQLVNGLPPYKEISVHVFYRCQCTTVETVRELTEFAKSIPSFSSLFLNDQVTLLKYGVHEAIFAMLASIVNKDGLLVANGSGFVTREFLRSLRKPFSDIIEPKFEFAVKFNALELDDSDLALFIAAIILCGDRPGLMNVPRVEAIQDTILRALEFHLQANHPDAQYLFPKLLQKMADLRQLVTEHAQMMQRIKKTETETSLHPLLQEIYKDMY

Canis familiaris [2] = assay: Toxicity in high-fat diet fed dog assessed as effect on food intake at 0.003 mg/kg, po administered QD for 1 week (reference value: 3.67+/-0.09 kg); type: organism-based, Canis lupus familiaris; set-up: dose 0.003 mg/kg, route oral; conditions: in vivo, 168 h
[3] = biological target: T2, Peroxisome proliferator-activated receptor gamma (Canis lupus familiaris, UniProt Q4U3Q4); assay: Agonist activity at dog PPARgamma; type: functional
T2 sequence (Q4U3Q4 whole entry): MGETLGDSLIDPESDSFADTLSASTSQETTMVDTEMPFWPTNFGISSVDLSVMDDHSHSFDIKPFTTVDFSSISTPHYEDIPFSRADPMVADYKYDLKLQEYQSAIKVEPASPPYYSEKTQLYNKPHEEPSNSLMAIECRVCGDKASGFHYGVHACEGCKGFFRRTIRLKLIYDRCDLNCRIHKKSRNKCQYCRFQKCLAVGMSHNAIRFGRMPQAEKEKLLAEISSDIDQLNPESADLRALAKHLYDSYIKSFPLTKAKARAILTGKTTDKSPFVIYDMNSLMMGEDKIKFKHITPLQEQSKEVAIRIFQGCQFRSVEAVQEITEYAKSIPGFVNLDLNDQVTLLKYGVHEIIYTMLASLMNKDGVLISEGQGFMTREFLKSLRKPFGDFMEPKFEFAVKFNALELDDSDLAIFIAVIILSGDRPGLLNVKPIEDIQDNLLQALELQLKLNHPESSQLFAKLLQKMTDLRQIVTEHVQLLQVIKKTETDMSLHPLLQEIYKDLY

Canis familiaris [4] = assay: Antidyslipidemic activity in high-fat diet fed dog assessed as decrease in non-HDL cholesterol at 0.01 mg/kg, po administered QD for 1 week (reference value: 75 +/- 5 mg/dL); type: functional, Canis lupus familiaris
Canis familiaris [5] = assay: Antidyslipidemic activity in high-fat diet fed dog assessed as decrease in serum triglyceride level at 0.01 mg/kg, po administered QD for 1 week (reference value: 98 +/- 4 mg/dL); type: functional, Canis lupus familiaris
[6] = Cmax in dog at 0.3 mg/kg, po; type: ADME, organism-based, Canis lupus familiaris; set-up: dose 0.3 mg/kg, route oral; conditions: in vivo
Canis familiaris [7] = assay: Antidyslipidemic activity in high-fat diet fed dog assessed as decrease in serum triglyceride level at 0.003 mg/kg, po administered QD for 1 week (reference value: 98 +/- 4 mg/dL); type: functional, Canis lupus familiaris
[8] = biological target: T3, Peroxisome proliferator-activated receptor gamma (Mus musculus, UniProt P37238); assay: Agonist activity at mouse PPARgamma; type: functional
T3 sequence (P37238 whole entry): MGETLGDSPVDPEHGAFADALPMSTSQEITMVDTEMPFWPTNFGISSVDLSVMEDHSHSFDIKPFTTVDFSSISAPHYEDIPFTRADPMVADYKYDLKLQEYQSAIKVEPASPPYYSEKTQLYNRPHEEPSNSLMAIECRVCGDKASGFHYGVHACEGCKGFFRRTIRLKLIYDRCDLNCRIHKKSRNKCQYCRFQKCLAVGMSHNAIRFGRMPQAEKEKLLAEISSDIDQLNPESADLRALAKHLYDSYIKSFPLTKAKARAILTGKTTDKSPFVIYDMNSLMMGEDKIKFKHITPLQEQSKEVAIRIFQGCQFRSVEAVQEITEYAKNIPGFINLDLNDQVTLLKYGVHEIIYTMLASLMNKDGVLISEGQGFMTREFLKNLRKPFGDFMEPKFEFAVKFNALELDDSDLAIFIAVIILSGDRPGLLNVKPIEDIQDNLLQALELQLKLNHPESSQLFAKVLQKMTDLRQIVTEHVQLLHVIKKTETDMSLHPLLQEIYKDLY

Canis familiaris [9] = assay: Antidyslipidemic activity in high-fat diet fed dog assessed as decrease in total cholesterol at 0.01 mg/kg, po administered QD for 1 week (reference value: 205 +/- 6 mg/dL); type: functional, Canis lupus familiaris
[10] = Agonist activity at hamster PPARgamma; type: functional, Cricetinae
Canis familiaris [11] = assay: Volume of distribution at steady state in dog at 0.3 mg/kg, po; type: ADME, organism-based, Canis lupus familiaris; set-up: dose 0.3 mg/kg, route oral; conditions: in vivo
[12] = Agonist activity at hamster PPARdelta; type: functional, Cricetinae
Canis familiaris [13] = assay: Antidyslipidemic activity in high-fat diet fed dog assessed as decrease in serum triglyceride level at 0.03 mg/kg, po administered QD for 1 week (reference value: 98 +/- 4 mg/dL); type: functional, Canis lupus familiaris
Canis familiaris [14] = assay: Toxicity in high-fat diet fed dog assessed as change in body weight at 0.01 mg/kg, po administered QD for 1 week (reference value: 14.8 +/- 0.7 kg); type: organism-based, Canis lupus familiaris; set-up: dose 0.01 mg/kg, route oral; conditions: in vivo, 168 h
Canis familiaris [15] = assay: Antidyslipidemic activity in high-fat diet fed dog assessed as decrease in free fatty acid at 0.003 mg/kg, po administered QD for 1 week (reference value: 0.624 +/- 0.057 mEq/L); type: functional, Canis lupus familiaris
Canis familiaris [16] = assay: Toxicity in high-fat diet fed dog assessed as effect on food intake at 0.03 mg/kg, po administered QD for 1 week (reference value: 3.67+/-0.09 kg); type: organism-based, Canis lupus familiaris; set-up: dose 0.03 mg/kg, route oral; conditions: in vivo, 168 h
Canis familiaris [17] = assay: Antidyslipidemic activity in high-fat diet fed dog assessed as decrease in non-HDL cholesterol at 0.03 mg/kg, po administered QD for 1 week (reference value: 75 +/- 5 mg/dL); type: functional, Canis lupus familiaris
[18] = Total clearance in rat at 1 mg/kg, po; type: ADME, organism-based; set-up: dose 1 mg/kg, route oral; conditions: in vivo
Canis familiaris [19] = assay: Toxicity in high-fat diet fed dog assessed as effect on food intake at 0.01 mg/kg, po administered QD for 1 week (reference value: 3.67+/-0.09 kg); type: organism-based, Canis lupus familiaris; set-up: dose 0.01 mg/kg, route oral; conditions: in vivo, 168 h
Canis familiaris [20] = assay: Toxicity in high-fat diet fed dog assessed as change in body weight at 0.03 mg/kg, po administered QD for 1 week (reference value: 14.8 +/- 0.7 kg); type: organism-based, Canis lupus familiaris; set-up: dose 0.03 mg/kg, route oral; conditions: in vivo, 168 h
Rattus norvegicus = assay: Volume of distribution at steady state in rat at 1 mg/kg, po; type: ADME, organism-based; set-up: dose 1 mg/kg, route oral; conditions: in vivo

Cc1nc(-c2ccc(Cl)cc2)sc1C(=O)N[C@H]1CCCN(c2cccc(C(=O)O)c2)C1
EC50 [1]: 3 µM
Activity (Canis familiaris [2]): 3.85 kg
EC50 [3]: 11 µM
Activity (Canis familiaris [4]): 50 mg/dL
Activity (Canis familiaris [5]): 48 mg/dL
Cmax [6]: 295 ng/mL
Activity (Canis familiaris [7]): 64 mg/dL
EC50 [8]: 12 µM
Activity (Canis familiaris [9]): 176 mg/dL
EC50 [10]: > 15 µM
Vdss (Canis familiaris [11]): 1.66 L/kg
EC50 [12]: > 7.1 µM
Activity (Canis familiaris [13]): 44 mg/dL
Activity (Canis familiaris [14]): 14.8 kg
Activity (Canis familiaris [15]): 0.607 mEq/L
Activity (Canis familiaris [16]): 3.51 kg
Activity (Canis familiaris [17]): 42 mg/dL
CL/F [18]: 1.53 mL/min/kg
Activity (Canis familiaris [19]): 3.91 kg
Activity (Canis familiaris [20]): 14.8 kg
Vdss (Rattus norvegicus): 0.832 L/kg
